Measured values as given in patent publication US20250051327A1, “MALT-1 MODULATORS” (EXSCIENTIA AI LIMITED, priority 2020, published 2025).

Experiments:
[1] = test system: IL-2 secretion by human effector memory T cells (TEM); assay: Effector memory T cells IL-2 release assay; assay type: cell-based; details: T-cell; human CD4+ effector memory T cells, CD3/CD28 bead stimulation, 24 h; read-out: CD4TC IL2 IC50
Method: Effector Memory T Cells IL-2 Release Assay
Test compound-mediated inhibition of NFκB signalling in T cells was assessed by quantification of the IL-2 secretion by human effector memory T cells (TEM) upon treatment and stimulation. Human TEM cells were isolated from buffy coats of healthy donors obtained from the French blood bank. First, peripheral blood mononuclear cells (PBMC) were purified from buffy coats diluted 1:1 with DPBS (Gibco, cat #14190-094) by Pancoll (PAN BIOTECH, cat #P04-60500) density gradient centrifugation at 400×g for 20 minutes. TEM cells were further enriched by negative immuno-magnetic cell sorting using a human CD4+ Effector Memory T Cell Isolation Kit (Miltenyi, cat #130-094-125) according to the manufacturer's instructions. Aliquots of 3×10E6 purified TEM cells were kept frozen in Cryo-SFM medium (PromoCell, cat #C-29912) in gas phase nitrogen until used. Cell purity was verified by flow cytometry analysis of 200 000 PFA-fixed cells previously labelled with monoclonal antibodies anti-CD4-PerCP-Cy5.5 (BD Pharmigen, cat #332772), anti-CD8-V500 (BD Biosciences, cat #561617), anti-CD14-Pacific Blue (Biolegend, cat #325616), anti-CD45 RA-FITC (Biolegend, cat #304106) and anti-CCR7-APC (in CD4+ Effector Memory T Cell Isolation Kit, Miltenyi, cat #130-094-125).
TEM cells were resuspended in complete RPMI medium composed of: RPMI 1640 (Gibco, cat #31870-025), 10% heat inactivated fetal bovine serum (Sigma, cat #F7524), 2 mM GlutaMAX (Gibco, cat #35050-038), 1 mM sodium pyruvate 100× (Gibco, cat #11360-039), 1% MEM non-essential amino acids solution (Gibco, cat #11140-035) and 100 U/mL penicillin, 100 μg/mL streptomycin (Sigma-Aldrich, cat #11074440001). 5,000 cells per well were plated onto flat clear bottom 384 well plates (Corning, cat #3770). 5,000 Dynabeads Human T-Activator CD3/CD28 (Gibco, cat #11132D) were added to each well for cell stimulation. Finally, 10 doses of test compound, originally prepared in DMSO by serial semi-log step dilution, were also added to cells in triplicate wells. Final DMSO concentration in wells was 0.1% in a total volume of 100 μL complete medium. Plates were incubated for 24 h at 37° C. in 5% CO2 atmosphere. After incubation, cell suspensions were centrifuged at 400×g and culture supernatants were recovered and stored at −80° C. Cell viability was assessed by flow cytometry after staining the cells with Fixable Viability Dye eFluor 780 (Invitrogen, cat #65-0865-14). IL-2 levels were determined in cell supernatants using an HTRF human IL-2 detection kit (Cisbio, cat #62HIL02PEH). IL-2 data at the different compound doses were fitted to a 4-parameter logistic curve to determine IC50 values, corresponding to the compound concentration leading to 50% reduction of the maximal IL-2 levels observed in each experiment. Viability data were analysed similarly to exclude cytotoxicity as a cause of IL-2 decrease (see Table 1).

[2] = molecular target: Recombinant human MALT-1 (amino acids 340-824) (Homo sapiens (Human), UniProt Q9UDY8); assay: MALT-1 inhibition assay (fluorogenic substrate Ac-LRSR-Rh110-DP); assay type: biochemical; details: recombinant human MALT-1, substrate Ac-LRSR-Rh110-DP
Chain of Recombinant human MALT-1 (amino acids 340-824) (Q9UDY8 340-824): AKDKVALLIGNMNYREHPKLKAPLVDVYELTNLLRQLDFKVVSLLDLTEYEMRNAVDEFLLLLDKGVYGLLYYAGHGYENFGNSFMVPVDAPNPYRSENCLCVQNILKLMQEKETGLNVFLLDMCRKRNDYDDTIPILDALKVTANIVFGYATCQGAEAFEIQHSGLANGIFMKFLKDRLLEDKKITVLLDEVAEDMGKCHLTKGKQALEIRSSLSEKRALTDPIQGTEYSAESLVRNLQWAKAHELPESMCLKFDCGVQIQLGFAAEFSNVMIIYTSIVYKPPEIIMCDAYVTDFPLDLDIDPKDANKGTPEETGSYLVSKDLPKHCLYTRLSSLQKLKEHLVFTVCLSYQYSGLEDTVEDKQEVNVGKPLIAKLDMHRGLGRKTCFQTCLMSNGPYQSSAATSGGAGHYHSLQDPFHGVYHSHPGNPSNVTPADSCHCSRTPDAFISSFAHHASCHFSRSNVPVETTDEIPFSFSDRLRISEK
How it was run: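 MALT-1 at 3 nM final was reacted with 10 μM Ac-LRSR-Rh110-DP, with substrate addition starting the reaction. Incubation ran 60 minutes at 25° C in the dark. Percent inhibition from fluorescence across doses was fitted to a 4-parameter logistic to give IC50.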

Row | SMILES | IC50 [1] | IC50 [2]
1 | CN(C(=O)[C@H]1C[C@@H](C(=O)O)C1)[C@@H](c1ccc(N2CCCc3c2cnc2cc(Cl)nn32)cc1)C(F)(F)F [CPD0072934, (cis)-3-{[(1S)-1-(4-{4-chloro-2,3,7,10-tetraazatricyclo[7.4.0.0^2,6]trideca-1(9),3,5,7-tetraen-10-yl}phenyl)-2,2,2-trifluoroethyl](methyl)carbamoyl}cyclobutane-1-carboxylic acid] | 422 nM | 72 nM
2 | CC(=O)N1CCC(C(=O)N(C)[C@@H](c2ccc(N3CC[C@@H](C)c4c3cnc3cc(Cl)nn43)cc2)C(F)(F)F)CC1 [CPD0074558] | 67 nM | 74 nM
3 | CN(C(=O)[C@@H]1CC(=O)N1)[C@@H](c1ccc(N2CCCc3c2cnc2cc(Cl)nn32)cc1)C(F)(F)F [CPD0075870, (2S)-N-[(1S)-1-[4-(4-chloro-2,3,7,10-tetrazatricyclo[7.4.0.0^2,6]trideca-1(9),3,5,7-tetraen-10-yl)phenyl]-2,2,2-trifluoro-ethyl]-N-methyl-4-oxo-azetidine-2-carboxamide] | 120 nM | 63 nM
4 | CCC(O)C(=O)N(C)[C@@H](c1ccc(N2CCCc3c2cnc2cc(Cl)nn32)cc1)C(F)(F)F (stereo partly drawn) [CPD0021576, N-[(1S)-1-(4-{4-chloro-2,3,7,10-tetraazatricyclo[7.4.0.0^2,6]trideca-1(9),3,5,7-tetraen-10-yl}phenyl)-2,2,2-trifluoroethyl]-2-hydroxy-N-methylbutanamide] | 333 nM | 146 nM
5 | CN1CC[C@@H](C(=O)N(C)[C@@H](c2ccc(N3CCCc4c3cnc3cc(Cl)nn43)cc2)C(F)(F)F)CC1=O (relative stereo) [CPD0073142, (4rel-R)-N-[(1S)-1-(4-{4-chloro-2,3,7,10-tetraazatricyclo[7.4.0.0^2,6]trideca-1(9),3,5,7-tetraen-10-yl}phenyl)-2,2,2-trifluoroethyl]-N,1-dimethyl-2-oxopiperidine-4-carboxamide] | 122 nM | 68 nM
6 | CN(C(=O)[C@H]1CC[S@@+]([O-])CC1)[C@@H](c1ccc(N2CCC3(CC3)c3c2cnc2cc(F)nn32)cc1)C(F)(F)F (relative stereo) [CPD0072932, (1rel-s,4rel-s)-N-methyl-1-oxo-N-[(1S)-2,2,2-trifluoro-1-(4-{4′-fluoro-2′,3′,7′,10′-tetraazaspiro[cyclopropane-1,13′-tricyclo[7.4.0.0^2,6]tridecane]-1′(9′),3′,5′,7′-tetraen-10′-yl}phenyl)ethyl]-1λ^4-thiane-4-carboxamide] | 56 nM | 49 nM
7 | CN(C(=O)C1CN(S(C)(=O)=O)C1)[C@@H](c1ccc(N2CCCc3c2cnc2cc(Cl)nn32)cc1)C(F)(F)F [CPD0073238, N-[(1S)-1-(4-{4-chloro-2,3,7,10-tetraazatricyclo[7.4.0.0^2,6]trideca-1(9),3,5,7-tetraen-10-yl}phenyl)-2,2,2-trifluoroethyl]-1-methanesulfonyl-N-methylazetidine-3-carboxamide] | 174 nM | 87 nM
8 | CN(C(=O)C1CC(C(=O)O)C1)[C@@H](c1ccc(N2CCCc3c2cnc2cc(Cl)nn32)cc1)C(F)(F)F (some centres unmarked) [CPD0072461] | 732 nM | 63 nM
9 | COC[C@@]1(C)CCN(c2ccc([C@H](N(C)C(=O)[C@H]3CC[S@](=N)(=O)CC3)C(F)(F)F)cc2)c2cnc3cc(Cl)nn3c21 (relative stereo) [CPD0073134, (1rel-r,4rel-r)-N-[(1S)-1-[4-[(13rel-S)-4-chloro-13-(methoxymethyl)-13-methyl-2,3,7,10-tetrazatricyclo[7.4.0.0^2,6]trideca-1(9),3,5,7-tetraen-10-yl]phenyl]-2,2,2-trifluoro-ethyl]-1-imino-N-methyl-1-oxo-1λ^6-thiane-4-carboxamide] | 57 nM | 85 nM
10 | CN(C(=O)C1CCOC1)[C@@H](c1ccc(N2CCCc3c2cnc2cc(Cl)nn32)cc1)C(F)(F)F (stereo partly drawn) [CPD0021568, N-[(1S)-1-(4-{4-chloro-2,3,7,10-tetraazatricyclo[7.4.0.0^2,6]trideca-1(9),3,5,7-tetraen-10-yl}phenyl)-2,2,2-trifluoroethyl]-N-methyloxolane-3-carboxamide] | 143 nM | 169 nM
11 | CN(C(=O)C1CCS(=O)(=O)CC1)[C@@H](c1ccc(N2CC(C)(C)c3c2cnc2cc(Cl)nn32)cc1)C(F)(F)F [CPD0019494, N-[(1S)-1-(4-{11-chloro-3,3-dimethyl-1,5,8,12-tetraazatricyclo[7.3.0.0^2,6]dodeca-2(6),7,9,11-tetraen-5-yl}phenyl)-2,2,2-trifluoroethyl]-N-methyl-1,1-dioxo-1λ^6-thiane-4-carboxamide] | 59 nM | 25 nM
12 | CC(=O)N1CCC[C@@H](C(=O)N(C)[C@@H](c2ccc(N3CCCc4c3cnc3cc(Cl)nn43)cc2)C(F)(F)F)C1 (relative stereo) [CPD0073499, (3rel-R)-1-acetyl-N-[(1S)-1-(4-{4-chloro-2,3,7,10-tetraazatricyclo[7.4.0.0^2,6]trideca-1(9),3,5,7-tetraen-10-yl}phenyl)-2,2,2-trifluoroethyl]-N-methylpiperidine-3-carboxamide] | 175 nM | 127 nM
13 | CN1C[C@@H](C(=O)N(C)[C@@H](c2ccc(N3CCCc4c3cnc3cc(Cl)nn43)cc2)C(F)(F)F)CC1=O (relative stereo) [CPD0073557, (3rel-S)-N-[(1S)-1-(4-{4-chloro-2,3,7,10-tetraazatricyclo[7.4.0.0^2,6]trideca-1(9),3,5,7-tetraen-10-yl}phenyl)-2,2,2-trifluoroethyl]-N,1-dimethyl-5-oxopyrrolidine-3-carboxamide] | 282 nM | 121 nM
14 | CC1CCN(c2ccc([C@H](N(C)C(=O)C3CCS(=O)(=O)CC3)C(F)(F)F)cc2)c2cnc3cc(Cl)nn3c21 (single isomer, unassigned) [CPD0021811] | 82 nM | 68 nM
15 | CN(C(=O)[C@H]1CC[S@@](=N)(=O)CC1)[C@@H](c1ccc(N2CCCc3c2cnc2cc(Cl)nn32)cc1)C(F)(F)F (relative stereo) [CPD0072528, (1rel-s,4rel-S)-N-[(1S)-1-(4-{4-chloro-2,3,7,10-tetraazatricyclo[7.4.0.0^2,6]trideca-1(9),3,5,7-tetraen-10-yl}phenyl)-2,2,2-trifluoroethyl]-1-imino-N-methyl-1-oxo-1λ^6-thiane-4-carboxamide] | 108 nM | 32 nM
16 | CN(C(=O)C1CCS(=O)(=O)CC1)[C@@H](c1ccc(N2CCCc3c2cnc2c(Cl)cnn32)cc1)C(F)(F)F [CPD0021751, N-[(1S)-1-(4-{5-chloro-2,3,7,10-tetraazatricyclo[7.4.0.0^2,6]trideca-1(9),3,5,7-tetraen-10-yl}phenyl)-2,2,2-trifluoroethyl]-N-methyl-1,1-dioxo-1λ^6-thiane-4-carboxamide] | 3280 nM | 2120 nM
17 | CN(C(=O)CN1CCOCC1)[C@@H](c1ccc(N2CCCc3c2cnc2cc(Cl)nn32)cc1)C(F)(F)F [CPD0073243, N-[(1S)-1-(4-{4-chloro-2,3,7,10-tetraazatricyclo[7.4.0.0^2,6]trideca-1(9),3,5,7-tetraen-10-yl}phenyl)-2,2,2-trifluoroethyl]-N-methyl-2-(morpholin-4-yl)acetamide] | 315 nM | 273 nM
18 | CN(C(=O)[C@@H]1CCN(C(=O)CC#N)C1)[C@@H](c1ccc(N2CCCc3c2cnc2cc(Cl)nn32)cc1)C(F)(F)F [CPD0073190, (3rel-R)-N-[(1S)-1-[4-(4-chloro-2,3,7,10-tetrazatricyclo[7.4.0.0^2,6]trideca-1(9),3,5,7-tetraen-10-yl)phenyl]-2,2,2-trifluoro-ethyl]-1-(2-cyanoacetyl)-N-methyl-pyrrolidine-3-carboxamide] | 239 nM | 
